Measured values published in patent US20240000977A1, “METHODS AND KITS FOR DIAGNOSING AND TREATING CANCERS” (Baruch S. Blumberg Institute, priority 2020, published 2024).

Experiments:
SETD2−/− cells = settings: cited from earlier work
DACH1^−/− 3T3 cells = assay: BrdU / propidium iodide flow cytometry of S-phase cells after WEE1 inhibition; format: cell-based; settings: 24 h
Protocol: (§1) DACH1 deficiency was determined to promote accumulation of non-proliferative S-phase cells by WEE1 kinase inhibitors. DACH1^+/+ and DACH1^−/− 3T3 cells were treated for 24 h with Adavosertib at 10 μM, a small molecule inhibitor of the tyrosine kinase WEE1, or with DMSO, as the control (see FIGS. 18A and 18B). Prior to harvest, the 3T3 cells were pulsed with 20 μM BrdU for 30 min at a temperature of 37° C. to enable detection of cells with active DNA replication. After harvesting the 3T3 cells, the 3T3 cells were stained with propidium iodide (DNA content) and an anti-BrdU antibody (Abcam). […] Representative FACS plots are shown (see FIGS. 19A-19E). […] Data is shown as mean±SEM for 4 separate experiments.

DACH1^+/+ 3T3 cells = assay: as above; format: cell-based; settings: Wt (DACH1^+/+) 3T3 cells, Adavosertib 10 μM, 24 h, 20 μM BrdU pulse 30 min; mean of 4 experiments
Protocol: as §1

[1] = test system: H3K36me3-deficient tumor xenografts; settings: cited from earlier work
L1210 leukemia = settings: murine L1210 leukemia, single agent; cited from earlier work

Molecule | sensitivity of cells (SETD2−/− cells) | BrdU incorporation upon inhibition of WEE1 kinase (DACH1^−/− 3T3 cells; 10 μM) | non-proliferating S-phase population (DACH1^−/− 3T3 cells; Adavosertib 10 μM, 20 μM BrdU pulse 30 min, mean of 4 experiments) [%] | non-proliferating S-phase population (DACH1^+/+ 3T3 cells) [%] | effect on tumor xenografts [1] | antileukemic effects, agent given alone (L1210 leukemia)
C=CCn1c(=O)c2cnc(Nc3ccc(N4CCN(C)CC4)cc3)nc2n1-c1cccc(C(C)(C)O)n1 [Adavosertib] | hypersensitive | failed to incorporate the BrdU | 38.3 | 13.8 | regresses | –
IL-12: IL-12 proteins, cytokine used in chemo-immunotherapy | – | – | – | – | – | moderate antileukemic effects
